# Reference: patent US8980259B2, “Combination therapy” (Novartis AG, priority 2012, dated 2015)
# What was measured:
# [1] = system: MCF7 human breast carcinoma cells; assay: Cell viability / proliferation assay (CELLTITER-GLO, dose matrix) in MCF7 cells; format: cell-based
# Procedure: FIG. 1 is a series of graphs showing the effect of the combination of COMPOUND A with ANTIBODY A on MCF7 cell proliferation under the presence of IGF-1 (100 ng/ml). Briefly, MCF7 cells were treated in 384-well format for 5 days with COMPOUND A and ANTIBODY A in the presence of 100 ng/ml of IGF1 in SD medium. […] Each data point represents averaged data from 3 wells+standard deviation, and the color spectrum also represents the level of the inhibition. A red rectangle highlights the region where the combination is more efficacious than the single agents the same dose.
# COMPOUND A (10 mM), stored in aliquots at −20° C. ANTIBODY A (0.2 mM in 1% BSA), stored in aliquots at 4° C. […]
# Cell viability was determined by measuring cellular ATP content using the CELLTITER-GLO (CTG) luminescent cell viability assay (Promega). […] An equal volume of the CTG reagents was added to each well at the end of the compound treatment and luminescence was recorded on an ENVISION plate reader (Perkin Elmer). Reduced and enhanched luminescent signal values (responses) were calculated relative to untreated (control) cells. […]
# The synergistic interaction (analyzed using Chalice software [CombinatoRx, Cambridge Mass.]) was calculated by comparing the response from a combination to the response of the agent acting alone, against the drug-with-itself dose-additive reference model. […]
# [2] = system: MCF7 xenograft; assay: MCF7 xenograft in mice, tumor volume; format: in vivo
# Procedure: MCF-7 cells (purchased from American Type Culture Collection (ATCC)) were tested free of mycoplasma and viral contamination in the IMPACT VIII PCR assay panel (RADIL, MU Research Animal Diagnostic Laboratory, Columbia, Mo.). MCF-7 cells were cultured in EMEM medium (ATCC#30-2003) containing 10% heat-inactivated fetal bovine serum. Mice were implanted with 17b-estradiol pellets, 0.18 mg/pellet, 90-day release (Innovative research of America Catalog #NE-121), between the shoulder blades three days before the cell implant.
# Treatment started on day 21 and concluded by day 59. Tumor volume of each group was measured. The effect of COMPOUND A and ANTIBODY A, as monotherapy and combination, was assessed by comparing: • (a) the percent change between Day 1 and endpoint day in the mean tumor volume of the treated group (T) and the control group (C) (herein referred to as “T/C”), and • (b) the percent change between Day 1 and the endpoint day in the mean tumor volume of the treated group compared to its initial volume (herein referred to as “T/T0”).
structure (smiles),measurement,setting,value
"Cc1nc(NC(=O)N2CCC[C@H]2C(N)=O)sc1-c1ccnc(C(C)(C)C(F)(F)F)c1 [COMPOUND A, (S)-Pyrrolidine-1,2-dicarboxylic acid 2-amide 1-({4-methyl-5-[2-(2,2,2-trifluoro-1,1-dimethyl-ethyl)-pyridin-4-yl]-thiazol-2-yl}-amide)]",MCF7 growth inhibition in vitro (summary in words),"[1]; MCF7, Experiment 1 summary",concentration-dependent tumor growth inhibition
same,anti-proliferative activity (in words),"[1]; MCF7, single agent, either in the presence or absence of IGF1",concentration dependent anti-proliferative activity
same,tumor outcome in MCF7 xenograft (summary in words),"[2]; MCF7 xenograft in mice, Experiment 2 summary",tumor stasis
same,"T/C (percent change in mean tumor volume, treated vs control group)","[2]; MCF7 xenograft mice, COMPOUND A 30 mg/kg qd po, ANTIBODY A 12 mg/kg q2w ip, treatment day 21 to day 59",10%
